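Grown in 96-well plates, cells were treated for 48 hours with each compound at five concentrations. Insufficient inhibition: endpoint recorded as highest concentration tested. Definition used: TGI = concentration required for complete inhibition of growth.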

Some test systems named below: A498 renal; NCI-H460 lung; HS 578T breast; SF-268 CNS; DU-145 prostate; A549 NSCLC; SF-295 CNS; NCI/ADR-RES ovarian; MALME-3M melanoma; OVCAR-5 ovarian; SNB-19 CNS; SK-MEL-5 melanoma; IGROV1 ovarian; SK-MEL-28 melanoma; OVCAR-4 ovarian.
Assay in all cases: inhibition of tumour cell growth, NCI panel, 48 h

Turning to `COC(=O)C(NC(=O)c1ccccc1)c1ccco1` (stereo unspecified), the TGI with A498 renal, in the assay on NCI-H460 lung, in the assay on HS 578T breast, in the assay on SF-268 CNS, in the assay on DU-145 prostate and in the assay with A549 NSCLC was over 100 µM throughout. Also, the TGI in the assay on SF-295 CNS, in the assay on NCI/ADR-RES ovarian, with MALME-3M melanoma, with OVCAR-5 ovarian, in the assay on SNB-19 CNS and in the assay on SK-MEL-5 melanoma was over 100 µM throughout. The TGI in the assay on IGROV1 ovarian and with SK-MEL-28 melanoma was over 100 µM throughout.
For `COc1cc(/C=C2\N=C(c3ccccc3)N(c3nc4c(OC)ccc(OC)c4s3)C2=O)ccc1O`, the TGI with A498 renal, in the assay on NCI-H460 lung, in the assay on HS 578T breast, in the assay on SF-268 CNS, in the assay with DU-145 prostate and in the assay on A549 NSCLC was over 100 µM in each case. In addition, the TGI with SF-295 CNS, with NCI/ADR-RES ovarian, in the assay on MALME-3M melanoma, with OVCAR-5 ovarian, in the assay on SNB-19 CNS and with SK-MEL-5 melanoma was over 100 µM in each case. Moreover, the TGI in the assay on IGROV1 ovarian and in the assay on SK-MEL-28 melanoma was over 100 µM each time.
Consider `Cc1ccc(-c2c3nc(c(-c4ccc(C)cc4)c4ccc([nH]4)c(-c4ccc(OCC5COC(C)(C)O5)cc4)c4nc(c(-c5ccc(C)cc5)c5ccc2[nH]5)C=C4)C=C3)cc1` (stereo unspecified), for which the TGI is over 31.6 µM in the assay on NCI-H460 lung; over 100 µM in the assay with HS 578T breast; over 31.6 µM with SF-268 CNS; over 31.6 µM in the assay with DU-145 prostate; over 31.6 µM with A549 NSCLC; over 31.6 µM in the assay on SF-295 CNS. In addition, the TGI with NCI/ADR-RES ovarian, in the assay on OVCAR-4 ovarian, in the assay with MALME-3M melanoma, with OVCAR-5 ovarian, in the assay with SNB-19 CNS and with SK-MEL-5 melanoma was over 31.6 µM throughout. In addition, the TGI in the assay on IGROV1 ovarian and in the assay with SK-MEL-28 melanoma was over 31.6 µM each time.
For the compound `O=C1C(Cl)C(c2cccc(Cl)c2)N1c1ccc(-n2c(=S)[nH]c3ccccc3c2=O)cc1` (stereo unspecified), the TGI with NCI-H460 lung is 35.3 µM; in the assay with HS 578T breast it was 62.1 µM; in the assay with SF-268 CNS, 39 µM; in the assay with DU-145 prostate it was over 100 µM; in the assay with A549 NSCLC, 81.5 µM; with SF-295 CNS it was 41.8 µM. Besides, the TGI in the assay on NCI/ADR-RES ovarian was 70.8 µM; in the assay on OVCAR-4 ovarian it was 39.6 µM; in the assay with MALME-3M melanoma it was over 100 µM; with OVCAR-5 ovarian it was 57.5 µM; with SNB-19 CNS, 16.3 µM; in the assay on SK-MEL-5 melanoma, 31.4 µM. In addition, in the assay with IGROV1 ovarian, the TGI worked out at 23.9 µM.
For the compound `CCOP(=O)(CN1CCNCCNCC1)OCC`, the TGI in the assay on A498 renal, with NCI-H460 lung, in the assay on HS 578T breast, with DU-145 prostate, in the assay with A549 NSCLC and with SF-295 CNS was over 100 µM throughout. For the same compound, the TGI in the assay on NCI/ADR-RES ovarian, in the assay on OVCAR-4 ovarian, in the assay with OVCAR-5 ovarian, with SNB-19 CNS, in the assay on SK-MEL-5 melanoma and in the assay on IGROV1 ovarian was over 100 µM each time. For the same compound, the TGI with SK-MEL-28 melanoma is over 100 µM.
`Cc1ccc(C)c(COCCOCn2ccc(N)nc2=O)c1`: the TGI with A498 renal, in the assay with NCI-H460 lung, with HS 578T breast, in the assay with SF-268 CNS, in the assay on DU-145 prostate and in the assay with A549 NSCLC was over 100 µM in each case. In addition, the TGI in the assay on SF-295 CNS, in the assay on NCI/ADR-RES ovarian, with MALME-3M melanoma, in the assay with OVCAR-5 ovarian, in the assay with SNB-19 CNS and in the assay with IGROV1 ovarian was over 100 µM in each case. The same compound returned a TGI in the assay on SK-MEL-28 melanoma of over 100 µM.
Regarding `Cc1cc(=O)n2nc(CN3CCCCC3)sc2n1`, the TGI in the assay on NCI-H460 lung, in the assay on HS 578T breast, with SF-268 CNS, with DU-145 prostate, in the assay with A549 NSCLC and with SF-295 CNS was over 100 µM in each case. Moreover, the TGI in the assay on NCI/ADR-RES ovarian, with OVCAR-4 ovarian, with MALME-3M melanoma, in the assay on OVCAR-5 ovarian, in the assay with SNB-19 CNS and in the assay with SK-MEL-5 melanoma was over 100 µM in each case. Further, the TGI with IGROV1 ovarian and with SK-MEL-28 melanoma was over 100 µM in each case.
Consider `CC(=O)OC1(C)C=CC(=O)C=C1`, for which the TGI in the assay with A498 renal is 84 µM; with NCI-H460 lung, 79.5 µM; in the assay with HS 578T breast, over 100 µM; in the assay with SF-268 CNS, over 100 µM; in the assay on DU-145 prostate it was over 100 µM; in the assay on A549 NSCLC it was over 100 µM. For the same compound, the TGI in the assay with SF-295 CNS is over 100 µM; in the assay with NCI/ADR-RES ovarian it was 26.3 µM; with OVCAR-4 ovarian, over 100 µM; with OVCAR-5 ovarian, over 100 µM; in the assay with SNB-19 CNS, over 100 µM; in the assay on SK-MEL-5 melanoma, over 100 µM. The TGI with IGROV1 ovarian came to 31.6 µM; in the assay on SK-MEL-28 melanoma, 69.6 µM.
Consider `COc1ccc(N2C(=O)c3cc(C)cnc3S2(=O)=O)cc1`, for which the TGI with NCI-H460 lung, in the assay on HS 578T breast, with SF-268 CNS, in the assay on DU-145 prostate, in the assay with A549 NSCLC and with SF-295 CNS was over 100 µM throughout. For the same compound, the TGI in the assay with NCI/ADR-RES ovarian, in the assay with OVCAR-4 ovarian, with MALME-3M melanoma, with OVCAR-5 ovarian, in the assay on SNB-19 CNS and in the assay with SK-MEL-5 melanoma was over 100 µM throughout. For the same compound, the TGI with IGROV1 ovarian and in the assay with SK-MEL-28 melanoma was over 100 µM in each case.
As to `N#C/C(N)=C(\C#N)N=CN`, the TGI with NCI-H460 lung, in the assay with HS 578T breast, with SF-268 CNS, in the assay with DU-145 prostate, with A549 NSCLC and with SF-295 CNS was over 100 µM in each case. In addition, the TGI in the assay on NCI/ADR-RES ovarian, in the assay with OVCAR-4 ovarian, in the assay on MALME-3M melanoma, with OVCAR-5 ovarian, in the assay on SK-MEL-5 melanoma and in the assay with IGROV1 ovarian was over 100 µM in each case. Moreover, the TGI with SK-MEL-28 melanoma was over 100 µM.
